Measured values as given in paper PMC7933434, “Entropy-driven binding of gut bacterial β-glucuronidase inhibitors ameliorates irinotecan-induced toxicity” (Communications Biology, 2021).
“And” between values parts separate entries of the source, which are not always exact repeats. Identical values can stand only once.

What was measured:
[1] = molecular target: T1, HsGUS (human GUS) (Homo sapiens, UniProt P08236); assay: GUS inhibition assay, hydrolysis of 4-methylumbelliferyl-β-glucuronide, HsGUS; assay type: biochemical; design: GUS activity (hydrolysis rate of MUG): unit not given here
T1 construct: HsGUS was prepared as described[37]; made in house
T1 sequence (P08236 23-651): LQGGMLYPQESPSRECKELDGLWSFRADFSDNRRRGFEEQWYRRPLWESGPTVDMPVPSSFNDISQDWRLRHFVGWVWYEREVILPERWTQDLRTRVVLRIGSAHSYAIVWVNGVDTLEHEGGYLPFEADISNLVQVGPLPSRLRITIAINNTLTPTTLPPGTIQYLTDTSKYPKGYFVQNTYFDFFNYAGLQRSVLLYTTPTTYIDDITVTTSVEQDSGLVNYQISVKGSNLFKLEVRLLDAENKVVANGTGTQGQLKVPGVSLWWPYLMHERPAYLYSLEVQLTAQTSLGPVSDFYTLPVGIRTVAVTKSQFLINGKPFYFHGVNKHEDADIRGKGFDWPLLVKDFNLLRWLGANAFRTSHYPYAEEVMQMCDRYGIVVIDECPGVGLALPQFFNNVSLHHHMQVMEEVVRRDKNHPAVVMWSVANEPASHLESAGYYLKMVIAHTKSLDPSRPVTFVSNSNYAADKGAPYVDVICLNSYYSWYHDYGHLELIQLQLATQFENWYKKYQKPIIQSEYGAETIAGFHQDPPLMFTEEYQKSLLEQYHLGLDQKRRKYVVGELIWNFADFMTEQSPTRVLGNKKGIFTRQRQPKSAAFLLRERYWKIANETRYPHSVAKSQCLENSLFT

[2] = molecular target: BdGUS (Bifidobacterium dentium, UniProt D2Q7B1); assay: biochemical; assay type: binding
[3] = molecular target: EcGUS (Escherichia coli GUS) (Escherichia coli, UniProt P05804); assay: biochemical
[4] = molecular target: BdGUS (Bifidobacterium dentium GUS) (Bifidobacterium dentium, UniProt D2Q7B1); assay: biochemical; design: GUS activity (hydrolysis rate of MUG) / 1/v: unit not given here
[5] = BdGUS, Tris buffer (250 mM NaCl, 20 mM Tris, pH 8.0), 298 K
[6] = [Inhibitor 2] = 3.75 μM, [MUG] 0.375 mM
[7] = [Inhibitor 2] = 3.75 μM, [MUG] 0.75 mM
[8] = [Inhibitor 2] = 3.75 μM, [MUG] 1.5 mM
[9] = [Inhibitor 2] = 3.75 μM, [MUG] 3 mM
[10] = [Inhibitor 2] = 7.5 μM, [MUG] 0.375 mM
[11] = [Inhibitor 2] = 7.5 μM, [MUG] 0.75 mM
[12] = [Inhibitor 2] = 7.5 μM, [MUG] 1.5 mM
[13] = [Inhibitor 2] = 7.5 μM, [MUG] 3 mM
[14] = [Inhibitor 2] = 15 μM, [MUG] 0.375 mM
[15] = [Inhibitor 2] = 15 μM, [MUG] 0.75 mM
[16] = [Inhibitor 2] = 15 μM, [MUG] 1.5 mM
[17] = [Inhibitor 2] = 15 μM, [MUG] 3 mM
[18] = [Inhibitor 2] = 30 μM, [MUG] 0.375 mM
[19] = [Inhibitor 2] = 30 μM, [MUG] 0.75 mM
[20] = [Inhibitor 2] = 30 μM, [MUG] 1.5 mM
[21] = [Inhibitor 2] = 30 μM, [MUG] 3 mM

BdGUS (Bifidobacterium dentium GUS), sequence (D2Q7B1 1-668): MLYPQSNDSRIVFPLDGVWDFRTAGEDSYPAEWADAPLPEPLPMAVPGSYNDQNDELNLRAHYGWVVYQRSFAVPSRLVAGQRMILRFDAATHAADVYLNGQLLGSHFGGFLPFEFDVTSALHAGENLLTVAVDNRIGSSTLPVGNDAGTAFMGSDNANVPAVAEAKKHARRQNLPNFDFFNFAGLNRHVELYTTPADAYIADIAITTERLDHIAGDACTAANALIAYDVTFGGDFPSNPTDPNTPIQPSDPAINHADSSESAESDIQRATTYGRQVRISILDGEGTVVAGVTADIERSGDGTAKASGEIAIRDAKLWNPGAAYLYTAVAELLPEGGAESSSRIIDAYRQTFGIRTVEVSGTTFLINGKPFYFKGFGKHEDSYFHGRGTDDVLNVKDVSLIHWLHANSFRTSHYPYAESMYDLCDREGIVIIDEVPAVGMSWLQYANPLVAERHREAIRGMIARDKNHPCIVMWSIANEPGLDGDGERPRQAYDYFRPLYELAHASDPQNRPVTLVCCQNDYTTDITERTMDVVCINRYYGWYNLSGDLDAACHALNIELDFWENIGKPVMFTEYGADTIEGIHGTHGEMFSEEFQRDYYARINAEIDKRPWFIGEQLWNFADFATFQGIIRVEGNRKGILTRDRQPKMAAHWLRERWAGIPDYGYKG
BdGUS, sequence (D2Q7B1 entry or part of it): as the sequence (D2Q7B1 1-668) above
EcGUS (Escherichia coli GUS), sequence (P05804 whole entry): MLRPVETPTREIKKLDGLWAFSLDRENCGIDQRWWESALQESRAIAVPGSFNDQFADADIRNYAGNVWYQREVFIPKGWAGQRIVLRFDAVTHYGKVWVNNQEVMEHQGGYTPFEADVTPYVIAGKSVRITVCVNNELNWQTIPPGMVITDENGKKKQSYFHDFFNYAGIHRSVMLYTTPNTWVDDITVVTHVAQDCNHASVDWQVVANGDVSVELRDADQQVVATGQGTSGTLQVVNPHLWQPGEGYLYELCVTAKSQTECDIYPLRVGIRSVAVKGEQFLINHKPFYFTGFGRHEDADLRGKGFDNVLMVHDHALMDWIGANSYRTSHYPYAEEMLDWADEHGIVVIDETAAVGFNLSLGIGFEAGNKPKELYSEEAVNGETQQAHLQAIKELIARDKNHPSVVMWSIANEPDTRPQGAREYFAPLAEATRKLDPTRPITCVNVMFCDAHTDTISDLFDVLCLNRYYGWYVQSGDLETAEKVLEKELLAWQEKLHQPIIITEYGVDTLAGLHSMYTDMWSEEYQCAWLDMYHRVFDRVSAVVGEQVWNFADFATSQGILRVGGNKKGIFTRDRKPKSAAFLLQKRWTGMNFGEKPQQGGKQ

CCC[C@@H]1NC[C@@H](O)[C@H](O)[C@H]1C(=O)O [Inhibitor 2, C6-propyl UIFG]
GUS activity (hydrolysis rate of MUG) ([1]; [Inhibitor 2] =10 μM, [MUG] 1.2 mM): 4195.01 and 4091.63
GUS activity (hydrolysis rate of MUG) ([1]; [Inhibitor 2] =10 μM, [MUG] 1.6 mM): 5141.39 and 4873.96
GUS activity (hydrolysis rate of MUG) ([1]; [Inhibitor 2] =10 μM, [MUG] 2 mM): 5569.48 and 4956.18
GUS activity (hydrolysis rate of MUG) ([1]; [Inhibitor 2] =20 μM, [MUG] 0.1 mM): 633.046 and 650.421
GUS activity (hydrolysis rate of MUG) ([1]; [Inhibitor 2] =20 μM, [MUG] 0.2 mM): 1058.97 and 1051.89
GUS activity (hydrolysis rate of MUG) ([1]; [Inhibitor 2] =20 μM, [MUG] 0.4 mM): 1746.1 and 1806.97
GUS activity (hydrolysis rate of MUG) ([1]; [Inhibitor 2] =20 μM, [MUG] 0.6 mM): 2323.32 and 2357.04
GUS activity (hydrolysis rate of MUG) ([1]; [Inhibitor 2] =20 μM, [MUG] 0.8 mM): 2744.58 and 2819.54
GUS activity (hydrolysis rate of MUG) ([1]; [Inhibitor 2] =20 μM, [MUG] 1.2 mM): 3443.09 and 3077.07
GUS activity (hydrolysis rate of MUG) ([1]; [Inhibitor 2] =20 μM, [MUG] 1.6 mM): 3957.48 and 3836.46
GUS activity (hydrolysis rate of MUG) ([1]; [Inhibitor 2] =20 μM, [MUG] 2 mM): 4613.38 and 4482.85
GUS activity (hydrolysis rate of MUG) ([1]; [Inhibitor 2] =40 μM, [MUG] 0.1 mM): 425.121 and 430.469
GUS activity (hydrolysis rate of MUG) ([1]; [Inhibitor 2] =40 μM, [MUG] 0.2 mM): 709.381 and 742.235
GUS activity (hydrolysis rate of MUG) ([1]; [Inhibitor 2] =40 μM, [MUG] 0.4 mM): 1260.88 and 1281.33
GUS activity (hydrolysis rate of MUG) ([1]; [Inhibitor 2] =40 μM, [MUG] 0.6 mM): 1728.03 and 1805.44
GUS activity (hydrolysis rate of MUG) ([1]; [Inhibitor 2] =40 μM, [MUG] 0.8 mM): 2092.2 and 2090.09
GUS activity (hydrolysis rate of MUG) ([1]; [Inhibitor 2] =40 μM, [MUG] 1.2 mM): 2609.86 and 2615.59
GUS activity (hydrolysis rate of MUG) ([1]; [Inhibitor 2] =40 μM, [MUG] 1.6 mM): 3152.02 and 3056.96
GUS activity (hydrolysis rate of MUG) ([1]; [Inhibitor 2] =40 μM, [MUG] 2 mM): 3549.78 and 3510.91
GUS activity (hydrolysis rate of MUG) ([1]; [Inhibitor 2] =75 μM, [MUG] 0.1 mM): 269.697 and 248.688
GUS activity (hydrolysis rate of MUG) ([1]; [Inhibitor 2] =75 μM, [MUG] 0.2 mM): 469.532 and 449.551
GUS activity (hydrolysis rate of MUG) ([1]; [Inhibitor 2] =75 μM, [MUG] 0.4 mM): 868.241 and 807.629
GUS activity (hydrolysis rate of MUG) ([1]; [Inhibitor 2] =75 μM, [MUG] 0.6 mM): 1207.03 and 1153.12
GUS activity (hydrolysis rate of MUG) ([1]; [Inhibitor 2] =75 μM, [MUG] 0.8 mM): 1515.37 and 1395.3
GUS activity (hydrolysis rate of MUG) ([1]; [Inhibitor 2] =75 μM, [MUG] 1.2 mM): 1853.64 and 1948.04
GUS activity (hydrolysis rate of MUG) ([1]; [Inhibitor 2] =75 μM, [MUG] 1.6 mM): 2229.7 and 2415.81
GUS activity (hydrolysis rate of MUG) ([1]; [Inhibitor 2] =75 μM, [MUG] 2 mM): 2629.91 and 2703.96
ΔΔH1–2 (enthalpy penalty of 2 relative to 1) ([2]; BdGUS in Tris buffer): +8.5 kcal mol^−1
–TΔΔS1–2 (2 relative to 1) ([2]; BdGUS in Tris buffer): -6.2 kcal/mol
entropy contribution to binding ([2]; BdGUS in Tris buffer, sign (positive = favourable)): +4.6 kcal mol^−1
Kd [2, 5]: 14.5 ± 3.55 µM
ΔG [2, 5]: –6.60 ± 0.15 kcal/mol
ΔH [2, 5]: –1.97 ± 0.15 kcal/mol
—TΔS [2, 5]: –4.64 ± 0.30 kcal/mol
Ki ([3]; 50 mM HEPES pH 7.5, 37 °C): 0.035 ± 0.009 µM
Ki ([3]; source data of Table 1, from plot of apparent Km against [inhibitor] (μM)): 0.0352 µM
Ki ([4]; BdGUS, 50 mM HEPES pH 7.5, 37 °C): 4.9 ± 1.2 µM
1/v [4, 6]: 0.7586 and 0.7898 and 0.7689
GUS activity (hydrolysis rate of MUG) [4, 6]: 0.2944 and 0.2827 and 0.2904
1/v [4, 7]: 0.5053 and 0.4969 and 0.4765
GUS activity (hydrolysis rate of MUG) [4, 7]: 0.4419 and 0.4494 and 0.4686
1/v [4, 8]: 0.3454 and 0.3517 and 0.3523
GUS activity (hydrolysis rate of MUG) [4, 8]: 0.6465 and 0.6349 and 0.6338
1/v [4, 9]: 0.3078 and 0.2975 and 0.297
GUS activity (hydrolysis rate of MUG) [4, 9]: 0.7254 and 0.7507 and 0.7517
1/v [4, 10]: 0.9443 and 1.067 and 1.0389
GUS activity (hydrolysis rate of MUG) [4, 10]: 0.2365 and 0.2092 and 0.2149
1/v [4, 11]: 0.6301 and 0.6229 and 0.6281
GUS activity (hydrolysis rate of MUG) [4, 11]: 0.3544 and 0.3585 and 0.3555
1/v [4, 12]: 0.4203 and 0.4167 and 0.4011
GUS activity (hydrolysis rate of MUG) [4, 12]: 0.5313 and 0.5358 and 0.5568
1/v [4, 13]: 0.3397 and 0.3356 and 0.3208
GUS activity (hydrolysis rate of MUG) [4, 13]: 0.6574 and 0.6654 and 0.6962
1/v [4, 14]: 1.396 and 1.589 and 1.568
GUS activity (hydrolysis rate of MUG) [4, 14]: 0.1599 and 0.1405 and 0.1424
1/v [4, 15]: 0.9143 and 0.8906 and 0.8101
GUS activity (hydrolysis rate of MUG) [4, 15]: 0.2442 and 0.2507 and 0.2757
1/v [4, 16]: 0.5734 and 0.5628 and 0.516
GUS activity (hydrolysis rate of MUG) [4, 16]: 0.3894 and 0.3968 and 0.4327
1/v [4, 17]: 0.4154 and 0.412 and 0.4013
GUS activity (hydrolysis rate of MUG) [4, 17]: 0.5375 and 0.5419 and 0.5564
1/v [4, 18]: 2.375 and 2.7756 and 2.7044
GUS activity (hydrolysis rate of MUG) [4, 18]: 0.09401 and 0.08045 and 0.08257
1/v [4, 19]: 1.493 and 1.508 and 1.184
GUS activity (hydrolysis rate of MUG) [4, 19]: 0.1495 and 0.1481 and 0.1887
1/v [4, 20]: 0.8717 and 0.8385 and 0.8277
GUS activity (hydrolysis rate of MUG) [4, 20]: 0.2562 and 0.2663 and 0.2698
1/v [4, 21]: 0.5634 and 0.5659 and 0.5111
GUS activity (hydrolysis rate of MUG) [4, 21]: 0.3964 and 0.3946 and 0.4369
